The values below come from BindingDB's records for patent US20240158406 (Chengdu Baiyu Pharmaceutical Co., 2024).

The target in the assay is T1, Protein mono-ADP-ribosyltransferase TIPARP (Homo sapiens, UniProt Q7Z3E1).
T1 sequence (Q7Z3E1 whole entry): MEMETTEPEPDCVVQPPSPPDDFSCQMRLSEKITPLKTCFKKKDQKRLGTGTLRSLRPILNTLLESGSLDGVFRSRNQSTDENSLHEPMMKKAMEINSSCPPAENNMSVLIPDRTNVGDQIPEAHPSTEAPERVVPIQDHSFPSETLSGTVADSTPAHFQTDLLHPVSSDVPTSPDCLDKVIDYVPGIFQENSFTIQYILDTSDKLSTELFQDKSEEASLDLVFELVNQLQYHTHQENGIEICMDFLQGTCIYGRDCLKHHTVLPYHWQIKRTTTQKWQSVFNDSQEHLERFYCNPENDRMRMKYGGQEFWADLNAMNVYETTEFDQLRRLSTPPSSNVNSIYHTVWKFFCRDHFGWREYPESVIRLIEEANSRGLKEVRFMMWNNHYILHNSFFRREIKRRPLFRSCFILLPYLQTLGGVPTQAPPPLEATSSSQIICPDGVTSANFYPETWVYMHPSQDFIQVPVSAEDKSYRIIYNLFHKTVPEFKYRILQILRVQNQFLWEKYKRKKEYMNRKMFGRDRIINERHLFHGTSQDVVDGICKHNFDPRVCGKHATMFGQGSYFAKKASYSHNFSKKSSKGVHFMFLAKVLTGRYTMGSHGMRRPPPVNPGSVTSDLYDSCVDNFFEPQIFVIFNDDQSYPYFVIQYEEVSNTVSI
In words: Enzymatic Biochemical Assay of PARP. How it is done:
The specific scheme was as follows: the 1× histone mixture was added to a 96-well plate at 50 μL per well, and the plate was incubated overnight at 4° C. The next day, after the plate was washed with PBST, 200 μL of blocking buffer per well was added, and the plate was incubated for 90 min. After the plate was washed with PBST again, 5 μL of inhibitor, 20 μL of 1×PARP buffer and 25 μL of […] were added to each well, and the plate was incubated at room temperature for 30 min. After the plate was washed with PBST, 100 μL of Elisa ECL substrate A and B mixture was added to each well, chemiluminescence value was immediately read using a plate reader, and IC50 values were calculated.

As usually defined, the IC50 is the point on the concentration scale where inhibition reaches its midpoint. A higher IC50 goes with weaker potency in that assay. Regarding `C[C@@H](COCc1nn2c(c1Cl)CN(c1cnc(C(F)(F)F)cn1)CC2)Nc1cn[nH]c(=O)c1C(F)(F)F` [US20240158406, Compound 14], the half-inhibitory concentration (IC50) was < 10 nM.
